Laboratory results as given in US20100286186A1, “NOVEL DICARBOXYLIC ACID LINKED AMINO ACID AND PEPTIDE PRODRUGS OF OPIOIDS AND USES THEREOF” (Shire LLC, priority 2009, published 2010).
Where “and” joins values, the source holds several entries; their conditions need not be identical. Equal values may be shown once. Marks after values point to notes of the source that are not given here.

Legend:
[1] = Bioavailability of oxycodone, codeine and dihydrocodeine from their succinyl valine ester prodrugs in the dog (oral gavage, two-way crossover); conditions: dogs, oral gavage; for T>50%Cmax of dihydrocodeine: 1 mg free base equivalents dihydrocodeine/kg; for T>50%Cmax of codeine: 1 mg free base equivalents codeine/kg
Protocol: The characteristics of the test animals are set out in Table 10, below.
Blood samples were taken at various times after administration and submitted to analysis for the parent drug and pro-drug using a validated LC-MS-MS assay. Pharmacokinetic parameters derived from the plasma analytical data were determined using Win Nonlin.

gut motility in the rat = assay: Charcoal propulsion test of GI motility in the rat; format: in vivo; conditions: oral
Protocol: Test treatments were administered to groups of up to 10 rats fasted overnight prior to the test.
Test treatments were administered orally 60 minutes prior to a 2.0 mL oral dose of a 10% suspension of charcoal in 5% gum arabic. Thirty minutes after dosing with charcoal, the rats were sacrificed and the entire gastro-intestinal tract quickly and carefully removed. The distance the charcoal meal had traveled from the pyloric sphincter toward the caecum was measured and expressed as a percentage of both the total gut length and the length of the small intestine.

[2] = In vitro stability of dicarboxylate amino acid ester prodrugs in simulated gastric and intestinal juice, distilled water and pH 10 buffer (HPLC); conditions: for Simulated gastric fluid (pH 1.1): % remaining after 2 h/37° C.: pH 1.1, 2 h; for Distilled water (pH 5.9): % remaining after 2 h/20° C.: pH 5.9, 2 h; for Simulated intestinal fluid (pH 6.8): % remaining after 2 h/37° C.: pH 6.8, 2 h; for pH 10.0 buffer: % remaining after 2 h/20° C.: pH 10.0, 2 h
[3] = Stability of meptazinol dicarboxylate bridged amino acid prodrugs in simulated gastric and intestinal juice and pH 7.4 buffer; format: physicochemical; conditions: for 2 h stability in pH7.4 buffer (37° C.), Conversion to meptazinol: pH 7.4 buffer
Source text: Initially the inherent chemical and biological stability of various dicarboxylate bridged amino acid prodrugs of meptazinol, was investigated under the conditions prevailing in the GI tract. Premature hydrolysis of the prodrug in the gut lumen prior to absorption would reduce the opportunity for transient protection of the drug during its passage though the liver and the desired reduction in first pass metabolism.
The remaining concentrations of the prodrug (and also drug released) were then assayed by HPLC. Additionally their chemical stability was evaluated in pH 7.4 buffer for 2 h 37° C.

[4] = Plasma pharmacokinetics of meptazinol dicarboxylate linked prodrugs after oral gavage to dogs; format: in vivo, dog; conditions: dog, 1 mg meptazinol base equivalents/kg; for systemic levels of meptazinol versus expected Cmax after the drug itself: oral gavage; for Dog Cmax (plasma meptazinol) / Dog Cmax (plasma prodrug levels, in brackets): oral gavage of prodrug; for Dog Cmax (plasma meptazinol): meptazinol level; for Dog Cmax (plasma prodrug levels, in brackets): prodrug level, BLQ = below 0.5 ng/mL
[5] = Plasma pharmacokinetics of meptazinol dicarboxylate linked prodrugs after oral gavage to cynomolgus monkeys; format: in vivo, cynomolgus monkey; conditions: 1 mg meptazinol base equivalents/kg; for Monkey Cmax (plasma meptazinol) / Monkey Cmax (plasma prodrug levels, in brackets): cynomolgus monkey, oral gavage of prodrug; for Monkey Cmax (plasma meptazinol): meptazinol level; for Monkey Cmax (plasma prodrug levels, in brackets): prodrug level, BLQ = below 0.5 ng/mL; for improvement in systemic levels of meptazinol: monkey, oral gavage
[6] = Comparative oral bioavailability of oxycodone from various dicarboxylate bridged amino acid prodrugs in dogs (nine-way crossover); format: in vivo, dog; conditions: 1 mg/kg oxycodone free base, mean (±sd)
[7] = Comparative pharmacokinetics of oxycodone in the cynomolgus monkey after oral administration; conditions: for T>50%Cmax of oxycodone: oral
[8] = simulated intestinal fluid, 2 h

| SMILES | 2 h stability in pH7.4 buffer (37° C.), Conversion to meptazinol ([3]; 2 h) | 1 h stability in simulated gastric fluid (37° C.), Conversion to meptazinol [3] | 2 h stability in simulated intestinal fluid (37° C.), Conversion to meptazinol [3, 8] | Dog Cmax (plasma meptazinol) [4] | Dog Cmax (plasma prodrug levels, in brackets) [4] | Monkey Cmax (plasma meptazinol) [5] | Monkey Cmax (plasma prodrug levels, in brackets) [5] | further results |
| --- | --- | --- | --- | --- | --- | --- | --- | --- |
| COc1ccc2c3c1O[C@H]1[C@@H](OC(=O)CCC(=O)NC(C(=O)O)C(C)C)CCC4[C@@H](C2)N(C)CC[C@@]341 (stereo in doubt) [dihydrocodeine-[succinyl-(S)-valine]ester] | – | – | – | – | – | – | – | T>50%Cmax of dihydrocodeine ([1]; individual dogs 1-5): 3 h (2×) and 2 h and 1 h (2×); T>50%Cmax of dihydrocodeine ([1]; median (n=5)): 2^a h; % change from vehicle-treated animals, small intestine (gut motility in the rat; 10 mg/kg): −17.4%; % change from vehicle-treated animals, total gut length (gut motility in the rat; 10 mg/kg): −16.6%; % change from vehicle-treated animals, small intestine (gut motility in the rat; 30 mg/kg): −8.5%; % change from vehicle-treated animals, total gut length (gut motility in the rat; 30 mg/kg): −8.5%; % change from vehicle-treated animals, small intestine (gut motility in the rat; 100 mg/kg): −13.3%; % change from vehicle-treated animals, total gut length (gut motility in the rat; 100 mg/kg): −12.9%; % change from vehicle-treated animals, small intestine (gut motility in the rat; 300 mg/kg): −35.7%; % change from vehicle-treated animals, total gut length (gut motility in the rat; 300 mg/kg): −35.3%; Simulated gastric fluid (pH 1.1): % remaining after 2 h/37° C. [2]: 100%; Distilled water (pH 5.9): % remaining after 2 h/20° C. [2]: 100%; Simulated intestinal fluid (pH 6.8): % remaining after 2 h/37° C. [2]: 100%; pH 10.0 buffer: % remaining after 2 h/20° C. [2]: 98% |
| COc1ccc2c3c1O[C@H]1[C@@H](O)C=C[C@H]4[C@@H](C2)N(C)CC[C@@]341.Cl [Codeine HCl, reference compound] | – | – | – | – | – | – | – | T>50%Cmax of codeine ([1]; individual dogs 1-5, HCl): 1.5 h (3×) and 0.5 h (2×); T>50%Cmax of codeine ([1]; median (n=5)): 1.5^a h |
| COc1ccc2c3c1O[C@H]1[C@@H](OC(=O)CCC(=O)N[C@H](C(=O)O)C(C)C)C=CC4[C@@H](C2)N(C)CC[C@@]341 (stereo partly drawn) [Codeine-[succinyl-(S)-valine] ester, codeine-[succinyl-(S)-valine]ester] | – | – | – | – | – | – | – | T>50%Cmax of codeine ([1]; individual dogs 1-5): 2 h (4×) and 1 h; T>50%Cmax of codeine ([1]; median (n=5)): 2^a h; % change from vehicle-treated animals, small intestine (gut motility in the rat; 10 mg/kg): −9.7%; % change from vehicle-treated animals, total gut length (gut motility in the rat; 10 mg/kg): −9.3%; % change from vehicle-treated animals, small intestine (gut motility in the rat; 30 mg/kg): −15.7%; % change from vehicle-treated animals, total gut length (gut motility in the rat; 30 mg/kg): −15.1%; % change from vehicle-treated animals, small intestine (gut motility in the rat; 100 mg/kg): −16.4%; % change from vehicle-treated animals, total gut length (gut motility in the rat; 100 mg/kg): −15.6%; Simulated gastric fluid (pH 1.1): % remaining after 2 h/37° C. [2]: 99%; Distilled water (pH 5.9): % remaining after 2 h/20° C. [2]: 100%; Simulated intestinal fluid (pH 6.8): % remaining after 2 h/37° C. [2]: 98%; pH 10.0 buffer: % remaining after 2 h/20° C. [2]: 92% |
| CCC1(c2cccc(OC(=O)CC(C)(C)CC(=O)Nc3ccc(C(=O)O)cc3)c2)CCCCN(C)C1 (stereo not drawn) [Meptazinol [3,3-dimethyl-glutaryl-PABA]ester] | 93% | 1% | 5% | 9.4 ng/mL | 25 ng/mL | 1.3 ng/mL | BLQ | systemic levels of meptazinol versus expected Cmax after the drug itself [4]: improved systemic levels of meptazinol; improvement in systemic levels of meptazinol [5]: not seen in the monkey |
| CCC1(c2cccc(OC(=O)C=CC(=O)Nc3ccc(C(=O)O)cc3)c2)CCCCN(C)C1 (stereo not drawn) [Meptazinol [fumaryl-PABA] ester] | 47% | 2% | 6% | 1.5 ng/mL | BLQ | 1.4 ng/mL | BLQ | – |
| CCC1(c2cccc(OC(=O)CCCC(=O)Nc3ccc(C(=O)O)cc3)c2)CCCCN(C)C1 (stereo not drawn) [Meptazinol [glutaryl-PABA] ester] | 80% | 5% | 6% | 3.4 ng/mL | 6.7 ng/mL | 1.5 ng/mL | 1.7 ng/mL | – |
| CCC1(c2cccc(OC(=O)C(C)(C)CC(=O)N[C@H](C(=O)O)C(C)C)c2)CCCCN(C)C1 (stereo partly drawn) [Meptazinol-[2,2-dimethylsuccinyl-(S)-valine] ester] | 2% | – | 3% | 0.9 ng/mL | 25 ng/mL | 0.4 ng/mL | 100 ng/mL | – |
| CCC1(c2cccc(OC(=O)CC(C)(C)CC(=O)NCC(=O)O)c2)CCCCN(C)C1 (stereo not drawn) [Meptazinol-[3,3-dimethylglutaryl-glycine] ester] | 2% | 4% | 4% | 0.5 ng/mL | 29 ng/mL | 1.1 ng/mL | 18 ng/mL | – |
| CCC1(c2cccc(OC(=O)CCC(=O)N3CCC[C@H]3C(=O)O)c2)CCCCN(C)C1 (stereo partly drawn) [Meptazinol-[succinyl-(S)-proline] ester] | 4% | 4% | 4% | 0.7 ng/mL | 36 ng/mL | 2.0 ng/mL | 16 ng/mL | – |
| COc1ccc2c3c1O[C@H]1C(OC(=O)CCCC(=O)N[C@@H](CC(C)C)C(=O)O)=CC[C@@]4(O)[C@@H](C2)N(C)CC[C@]314 [Oxycodone-Glutaryl-Leu Enol Ester, oxycodone-[glutaryl-(S)-leucine] enol ester] | – | – | – | – | – | – | – | T50% Cmax of oxycodone [6]: 3.4 (±0.7) h.; Cmax of intact prodrug ([7]; male cynomolgus monkeys, oral prodrug, 1 mg oxycodone free base equivalents/kg, individual monkeys 1-5): BLQ; T>50%Cmax of oxycodone ([7]; male cynomolgus monkeys, 1 mg oxycodone free base equivalents/kg, individual monkeys 1-5): 2.33 h and 2.40 h and 3.13 h and 4.66 h and 1.80 h; T>50%Cmax of oxycodone ([7]; male cynomolgus monkeys, 1 mg oxycodone free base equivalents/kg, mean (n=5)): 2.86 h; T>50%Cmax of oxycodone ([7]; male cynomolgus monkeys, 1 mg oxycodone free base equivalents/kg, mean (n=5), listed as OGLE): 2.9 h; prodrug levels in plasma ([7]; monkeys, oral prodrug): below the limit of quantification; Simulated gastric fluid (pH 1.1): % remaining after 2 h/37° C. [2]: 98%; Simulated intestinal fluid (pH 6.8): % remaining after 2 h/37° C. [2]: 79% |
| COc1ccc2c3c1O[C@H]1[C@@H](O)C=C[C@H]4[C@@H](C2)N(C)CC[C@@]341 [codeine, reference compound] | – | – | – | – | – | – | – | T>50%Cmax of codeine ([1]; median (n=5)): 1.2 h; delay of the passage of the charcoal meal (gut motility) (gut motility in the rat; 30 mg/kg or equimolar dose): greater than 30% |
| CCC1(c2cccc(OC(=O)c3ccccc3C(=O)N[C@@H](Cc3ccccc3)C(=O)O)c2)CCCCN(C)C1.O=C(O)C(F)(F)F (stereo partly drawn) [meptazinol [phthalyl-(S)-phenylalanine]ester trifluoroacetate] | 72% | 3% | 30% | 9.1 ng/mL | 71 ng/mL | – | BLQ | degradation in 2 h in simulated intestinal fluid ([3]; simulated intestinal fluid, 2 h, 37° C.): ~30%; systemic levels of meptazinol versus expected Cmax after the drug itself [4]: improved systemic levels of meptazinol; improvement in systemic levels of meptazinol [5]: not seen in the monkey |
